# Source: ChEMBL document CHEMBL4004884, “Sesquiterpene derivatives from marine sponge Smenospongia cerebriformis and their anti-inflammatory activity” (Bioorg Med Chem Lett, 2017)
# What was measured:
# [1] = tested on: BV-2; test: Antiinflammatory activity in mouse BV2 cells assessed as inhibition of LPS-stimulated nitric oxide production by Griess assay; format: functional, cell-based
# [2] = Cytotoxicity against mouse BV2 cells assessed as cell viability at 40 uM relative to control; format: cell-based, BV-2; settings: read-out: Activity
# [3] = tested on: BV-2; test: Antiinflammatory activity in mouse BV2 cells assessed as inhibition of LPS-stimulated nitric oxide production at 40 uM by Griess assay relative to control; format: functional
IC50 [1] [µM],Structure (SMILES),viability at 40 µM [2] [%],inhibition at 40 µM [3] [%]
28.3,C=C1CCC[C@H]2[C@](C)(C[C@@H]3C(=O)C=C(OC)[C@@H]3O)[C@@H](C)CC[C@]12C,174,> 50
> 40,C=C1CCC[C@H]2[C@](C=O)(Cc3cc(C(=O)OC)c(O)c(OC)c3O)[C@@H](C)CC[C@]12C,106,–
24.4,C=C1CCC[C@H]2[C@](CO)(Cc3cc(C(=O)OC)c(O)c(OC)c3O)[C@@H](C)CC[C@]12C,160,> 50
> 40,C=C1CCC[C@H]2[C@](C)(Cc3cc(C(=O)OC)cc(OC)c3O)[C@@H](C)CC[C@]12C [POLYFIBROSPONGOL A],125,–

# Further lines, the molecule ahead of its results:
Structure (SMILES),IC50 [1] [µM],viability at 40 µM [2] [%],inhibition at 40 µM [3] [%]
C=C1CCC[C@H]2[C@](C)(Cc3c(O)c(OC)cc4ncoc34)[C@@H](C)CC[C@]12C,> 40,92.1,–
C=C1CCC[C@H]2[C@](C)(C[C@H]3C(=O)C=C(OC)[C@@H]3O)[C@@H](C)CC[C@]12C,30.1,141,> 50
C=C1CCC[C@H]2[C@](CO)(Cc3cc(C(=O)OC)cc(OC)c3O)[C@H](C)CC[C@]12C,24.4,171,> 50
C=C1CCC[C@H]2[C@](C)(Cc3cc(C(=O)OC)ccc3O)[C@@H](C)CC[C@]12C,> 40,121,–
C=C1CCC[C@H]2[C@](C)(CC3=C(O)C(=O)C=C(OC)C3=O)[C@@H](C)CC[C@]12C [ILIMAQUINONE],10.4,95.7,> 50
CNC(=N)NCCC[C@H](N)C(=O)O [TILARGININE],22.1,95.5,–
